Source: patent US20230348495A1, “A COMPOUND HAVING INHIBITORY ACTIVITY AGAINST KRAS G12D MUTATION” (TAIHO PHARMACEUTICAL CO., LTD., priority 2019, published 2023)

What was measured:
KRAS G12D = KRAS G12D (Homo sapiens (Human), UniProt P01116, G12D); test: Inhibitory activity on KRAS G12D nucleotide (GDP-GTP) exchange reaction in vitro (SOS1-dependent, BODIPY FL GDP); format: biochemical; conditions: BODIPY FL GDP-bound KRAS G12D, compound 25° C. 1 hour, then SOS1 and GMPPNP 30 minutes
Excerpt: Test Example 1: Evaluation of inhibitory activity of compounds on KRAS G12D nucleotide (GDP-GTP) exchange reaction in vitro
Recombinant KRAS G12D (conjugated N-terminus His6-tag, TEV protease cleavage site and KRAS G12D residues 1-169 (SEQ ID NO: 1), prepared by the method described as below) and cleaved recombinant SOS1 (residues 564-1049(SEQ ID NO: 2), prepared by the method as below) proteins were expressed in E. coli and purified by affinity chromatography.
To prepare the recombinant KRAS G12D, the codon-optimized DNA sequence for the recombinant KRAS G12D (conjugated N-terminus His6-tag, TEV protease cleavage site and KRAS G12D residues 1-169 (SEQ ID NO: 3))was synthesized by GeneArt Technology (Life Technologies, Carlsbad, CA, US). The construct was subcloned into the expression vector pET28a and transformed into Escherichia coli BL21 (DE3) strains (Novagen, Madison, WI, US).
The transformed strain was cultivated in 2 L Luria Broth medium with 25 μg/mL kanamycin at a temperature of 37° C. to a density of 0.6 (OD600), then induced for expression with […] IPTG and further cultivated for 4 h. The cell pellet was resuspended in ice-cold lysis buffer containing 50 mM Tris-HCl (pH 7.5), 200 mM NaCl, and 100 μM TCEP (tris(2-carboxyethyl)phosphine).
After sonication, the disrupted debris was removed by centrifugation. The supernatant was applied on to Ni-NTA affinity gels, and the recombinant human KRAS (G12D) eluted fraction was collected. The buffer of the collected fraction was exchanged to the buffer containing 50 mM Tris-HCl (pH 7.5), 200 mM NaCl, 10% Glycerol, and 5 mM DTT by PD-10 column (GE-Healthcare, Chicago, IL, US).
To prepare the cleaved recombinant SOS1, the codon optimized DNA sequences for the recombinant SOS1 (residues 564-1049 with a conjugated N-terminus His6-tag and TEV protease cleavage site (SEQ ID NO: 4)) was synthesized by GeneArt Technology (Life Technologies). The construct was subcloned into the expression vector pET28a and transformed into Escherichia coli BL21 (DE3) strains (Novagen, Madison, WI, USA).
The transformed strain was cultivated in 2 L Terrific Broth medium with 25 μg/mL kanamycin at a temperature of 37° C. to a density of 0.8 (OD600), then shifted to a temperature of 16° C., induced for expression with […] IPTG, and further cultivated for 16 h. The cell pellet was resuspended in ice-cold lysis buffer containing 50 mM Tris-HCl (pH 7.5), 200 mM NaCl, and 100 μM TCEP.
After sonication, the disrupted debris was removed by centrifugation. The supernatant was applied on to Ni-NTA affinity gels, and the recombinant human SOS1 eluted fraction was collected. Then, His6-tagged TEV protease was added to the collected fraction, dialyzed with the ice-cold lysis buffer for 16 h at a temperature of 4° C., and applied on to Ni-NTA affinity gels. The flow-through fraction containing the tag-cleavaged recombinant human SOS1 was collected. The buffer of the collected fraction was exchanged to the buffer containing 50 mM Tris-HCl (pH 7.5), 200 mM NaCl, 10% Glycerol, and 5 mM DTT by PD-10 column (GE-Healthcare).
To prepare BODIPY FL (fluorescent dye) GDP-bound KRAS G12D protein, 50 μM KRAS G12D protein was incubated with 0.5 mM BODIPY FL GDP in a loading buffer (20 mM Tris-HCl (pH 7.5), 50 mM NaCl, 1 mM DTT and 2.5 mM EDTA) for 1 hour on ice. After the incubation, MgCl2 was added to a final concentration of 10 mM, followed by incubation at room temperature for 30 minutes.
The mixture was allowed to pass through a NAP-5 column to remove free nucleotides and purified BODIPY FL GDP-bound KRAS G12D protein was used for compound evaluation.
For the measurement of the inhibitory activity of compounds on GDP-GTP exchange rate of recombinant KRAS G12D, BODIPY FL GDP-bound KRAS G12D protein was incubated with various concentrations of compound in a reaction buffer (20 mM Tris-HCl (pH 7.5), 100 mM NaCl, 1 mM MgCl2, 2 mM DTT, 0.1% Tween 20) at 25° C. for 1 hour. […]

[1] = tested on: KRAS-G12D mutant cell line (A-427); test: Growth inhibition activity on KRAS-G12D mutant cell line (A-427), CellTiter-Glo 3D; format: cell-based; conditions: Homo sapiens, 72 h, A-427 cells, 3-day culture with compound, read-out: A427 CTX IC50
Procedure: Test Example 2: A measurement test of growth inhibition activity on KRAS-G12D mutant cell line (A-427) (in vitro) A-427 cells (ATCC, Cat #: HTB-53), which are a KRAS-G12D mutant human lung cancer cell line, were suspended in a 10% fetal bovine serum-containing E-MEM medium (manufactured by Fujifilm Wako Pure Chemical Corporation). The cell suspension was seeded into each well of a 384-well U bottom microplate and cultured in an incubator containing 5% CO2 gas at 37° C. for 1 day.
The compound of the present invention was dissolved in DMSO, and the test compound was diluted with DMSO to give a concentration 500 times the final concentration. The solution of the test compound in DMSO was diluted with the medium used for suspending cells and added to each well of the cell-culture plate to give a DMSO final concentration of 0.2%, followed by culture in an incubator containing 5% CO2 gas at 37° C. for another 3 days. The cell count after a 3-day culture in the presence of the compound was measured using CellTiter-Glo 3D Reagent (manufactured by Promega Corporation).
All wells were added with CellTiter-Glo 3D Reagent and mixed for 10 minutes. 30 minutes after mixing, luminescence was measured by a plate reader. The growth inhibition rate was calculated from the following equation, and the concentration of the test compound at which 50% inhibition was achieved (IC50 (μM)) was determined.
Growth Inhibition Rate(%)=(C−T)/(C)×100
T: the emission intensity in a well into which a test compound was added.
C: the emission intensity in a well into which a test compound was not added.

Chain of KRAS G12D (P01116 other isoform, or with tags, fused parts or gaps G12D (already in the parent)): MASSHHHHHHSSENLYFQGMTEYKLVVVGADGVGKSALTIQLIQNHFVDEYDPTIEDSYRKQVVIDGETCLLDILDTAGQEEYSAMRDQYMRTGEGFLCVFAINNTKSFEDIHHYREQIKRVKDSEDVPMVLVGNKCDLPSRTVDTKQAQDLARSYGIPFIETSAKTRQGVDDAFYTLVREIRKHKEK

| SMILES | IC50 (KRAS G12D) [nM] | IC50 [1] [nM] |
| --- | --- | --- |
| CCc1cc2c(N3CC4CCC(C3)N4)nc(OCC3(CN(C)C)CC3)nc2c(F)c1-c1cc(O)cc2ccccc12 [Example 19, 4-(4-(3,8-diazabicyclo[3.2.1]octan-3-yl)-2-((1-((dimethylamino)methyl)cyclopropyl)methoxy)-6-ethyl-8-fluoroquinazolin-7-yl)naphthalen-2-ol] | 7.1 | 1590 |
| C#Cc1cccc2cc(O)cc(C(=O)N3Cc4nc(OCC5(CN6CC[C@@H](F)C6)CC5)nc(N5CC6CCC(C5)N6)c4C3)c12 [Example 11, (4-(3,8-diazabicyclo[3.2.1]octan-3-yl)-2-((1-(((R)-3-fluoropyrrolidin-1-yl)methyl)cyclopropyl)methoxy)-5,7-dihydro-6H-pyrrolo[3,4-d]pyrimidin-6-yl) (8-ethynyl-3-hydroxynaphthalen-1-yl)methanone] | 1.4 | 7850 |
| C=Cc1cccc2cc(O)cc(C(=O)N3Cc4nc(OCC5(CN6CC[C@@H](F)C6)CC5)nc(N5CC6CCC(C5)N6)c4C3)c12 [Example 34, (4-(3,8-diazabicyclo[3.2.1]octan-3-yl)-2-((1-(((R)-3-fluoropyrrolidin-1-yl)methyl)cyclopropyl)methoxy)-5,7-dihydro-6H-pyrrolo[3,4-d]pyrimidin-6-yl) (3-hydroxy-8-vinylnaphthalen-1-yl)methanone] | 14.1 | 7140 |
| CN(C)CC1(COc2nc3c(c(N4C[C@@H]5CC[C@H]4CN5)n2)CCN(c2cc(O)cc4cccc(Br)c24)C3)CC1 [Example 20, 4-(4-((1S,4S)-2,5-diazabicyclo[2.2.2]octan-2-yl)-2-((1-((dimethylamino)methyl)cyclopropyl)methoxy)-5,8-dihydropyrido[3,4-d]pyrimidin-7(6H)-yl)-5-bromonaphthalen-2-ol] | 3 | 1950 |
| Oc1cc(N2CCc3c(nc(OCC4(CN5CCOCC5)CC4)nc3N3C[C@@H]4CC[C@H]3CN4)C2)c2c(Br)cccc2c1 [Example 28, 4-(4-((1S,4S)-2,5-diazabicyclo[2.2.2]octan-2-yl)-2-((1-(morpholinomethyl)cyclopropyl)methoxy)-5,8-dihydropyrido[3,4-d]pyrimidin-7(6H)-yl)-5-bromonaphthalen-2-ol] | 3.6 | 820 |
| CN(C)CC1(COc2nc(N3CC4CCC(C3)N4)c3ccc(-c4cc(O)cc5ccccc45)c(F)c3n2)CC1 [Example 15, 4-(4-(3,8-diazabicyclo[3.2.1]octan-3-yl)-2-((1-((dimethylamino)methyl)cyclopropyl)methoxy)-8-fluoroquinazolin-7-yl) naphthalen-2-ol] | 4.7 | 1360 |
| CN1CCC[C@H]1COc1nc(N2CC3CCC(C2)N3)c2ccc(-c3cc(O)cc4ccccc34)c(F)c2n1 [Example 16, 4-(4-(3,8-diazabicyclo[3.2.1]octan-3-yl)-8-fluoro-2-(((S)-1-methylpyrrolidin-2-yl)methoxy)quinazolin-7-yl) naphthalen-2-ol] | 10.2 | 2390 |
| CN(C)CC1(COc2nc3c(c(N4CC5CCC(C4)N5)n2)CCN(c2cc(O)cc4cccc(I)c24)C3)CC1 [Example 7, 4-(4-(3,8-diazabicyclo[3.2.1]octan-3-yl)-2-((1-((dimethylamino)methyl)cyclopropyl)methoxy)-5,8-dihydropyrido[3,4-d]pyrimidin-7(6H)-yl)-5-iodonaphthalen-2-ol] | 0.7 | 580 |
| C#Cc1cccc2cc(O)cc(C(=O)N3Cc4nc(OCC5(CN6CCOCC6)CC5)nc(N5CC6CCC(C5)N6)c4C3)c12 [Example 10, (4-(3,8-diazabicyclo[3.2.1]octan-3-yl)-2-((1-(morpholinomethyl)cyclopropyl)methoxy)-5,7-dihydro-6H-pyrrolo[3,4-d]pyrimidin-6-yl) (8-ethynyl-3-hydroxynaphthalen-1-yl)methanone] | 1.5 | 6620 |
| CN(C)CC1(COc2nc(N3CC4CCC(C3)N4)c3cc(Cl)c(-c4cc(O)cc5ccccc45)c(F)c3n2)CC1 [Example 14, 4-(4-(3,8-diazabicyclo[3.2.1]octan-3-yl)-6-chloro-2-((1-((dimethylamino)methyl)cyclopropyl)methoxy)-8-fluoroquinazolin-7-yl)naphthalen-2-ol] | 8.9 | 1270 |
| C#Cc1cccc2cc(N)nc(N3CCc4c(nc(OCC5(CN(C)C)CC5)nc4N4CC5CCC(C4)N5)C3)c12 [Example 36, 1-(4-(3,8-diazabicyclo[3.2.1]octan-3-yl)-2-((1-((dimethylamino)methyl)cyclopropyl)methoxy)-5,8-dihydropyrido[3,4-d]pyrimidin-7(6H)-yl)-8-ethynylisoquinolin-3-amine] | 27.4 | > 10000 |
| Cc1cccc2cc(O)cc(N3CCc4c(nc(OCC5(CN6CCOCC6)CC5)nc4N4CC5CCC(C4)N5)C3)c12 [Example 6, 4-(4-(3,8-diazabicyclo[3.2.1]octan-3-yl)-2-((1-(morpholinomethyl)cyclopropyl)methoxy)-5,8-dihydropyrido[3,4-d]pyrimidin-7(6H)-yl)-5-methylnaphthalen-2-ol] | 3.2 | 550 |
| C=Cc1cccc2cc(O)cc(C(=O)N3Cc4nc(OCC5(CN6CCOCC6)CC5)nc(N5CC6CCC(C5)N6)c4C3)c12 [Example 35, (4-(3,8-diazabicyclo[3.2.1]octan-3-yl)-2-((1-(morpholinomethyl)cyclopropyl)methoxy)-5,7-dihydro-6H-pyrrolo[3,4-d]pyrimidin-6-yl) (3-hydroxy-8-vinylnaphthalen-1-yl) methanone] | 13.5 | 8840 |
| CN(C)CC1(COc2nc3c(c(N4CC5CCC(C4)N5)n2)CCN(c2cc(O)cc4cccc(Br)c24)C3)CC1(F)F (stereo not shown) [Example 21, 4-(4-(3,8-diazabicyclo[3.2.1]octan-3-yl)-2-((1-((dimethylamino)methyl)-2,2-difluorocyclopropyl)methoxy)-5,8-dihydropyrido[3,4-d]pyrimidin-7(6H)-yl)-5-bromonaphthalen-2-ol] | 9.7 | 540 |
